Like-named read-outs stand apart in the source and are kept apart here.
How the values were obtained:
[1] = test system: Streptococcus mutans strain ATCC 25175; test: S. mutans growth in TS media with cesium/sodium salts (OD 600 nm, doubling time); type: cell-based; details: for inhibition of culture growth rates: nitrate salt, tested at 25-100 mM; for colonies on TS-agar plate: 50 μL of 100 mM salt culture spread onto TS-agar plate; for Minimum Inhibitory Concentration (MIC): Lineweaver-Burke plot of growth data
Description: (§1) Streptococcus mutans strain ATCC 25175 was obtained from American Type Culture Collection in the freeze-dried state. Cells were rehydrated in a trypticase soy-yeast extract media (30 g trypticase soy broth and 3 g yeast extract per liter mqH2O; TS media). The bacteria were grown overnight at 37° C., shaking at 60 rpm in 50 mL broth. For routine propagation of the strain, S. mutans was grown on trypticase soy agar plates, TS media with 15 g/L agar. Escherichia coli strain K12 was grown as a representative enteric bacteria in LB broth (10 g tryptone, 5 g yeast extract and 10 g NaCl per liter mqH2O).
To assess the toxicity of cesium chloride, growth rates were calculated from cultures grown in the absence and presence of cesium chloride with sodium chloride added to controls to maintain consistent ionic strength. The first growth curves conducted used duplicate cultures of 50 mL TS media in 125 mL flasks with foam stoppers. The media was inoculated with 1 mL of the starter culture (2% inoculum) and the optical density was measured at 600 nm. Two conditions were initially tested: 100 mM CsCl and 100 mM NaCl.
(§2) An increasing gradient of CsCl concentrations was examined to see how bacterial growth rate varies with salt concentration. Concentrations of 0 mM, 5 mM, 10 mM, 25 mM, 50 mM, 75 mM and 100 mM CsCl were tested; NaCl was used to counter balance control in order to maintain constant ion concentrations.
Additional cesium salts were used to assess alternate inhibitors of S. mutans cultures. Cesium salts of hydroxide, formate, bicarbonate, sulfate, nitrate, fluoride, and iodide were obtained from Fisher Scientific. Growth rates of S. mutans were monitored with 0 mM, 25 mM, 50 mM, and 100 mM cesium salt in TS broth. Control cultures were grown with sodium hydroxide, bicarbonate, nitrate, and sulfate at 0 mM, 25 mM, 50 mM, and 100 mM.
To investigate the inhibition of S. mutans by cesium chloride, growth in the presence and absence of CsCl was compared. Ions were balanced with NaCl in all cultures to a final concentration of 100 mM of supplemental cations added to the media (i.e., for 75 mM CsCl, 25 mM NaCl was added to bring the total concentration of supplemental cation to 100 mM). All data is presented in optical density absorbance measurements at 600 nm, or doubling times (the length of time it takes for a culture to double in time).

[2] = test system: S. mutans; test: Spiking of exponentially growing S. mutans cultures; type: cell-based, Streptococcus mutans; details: for doubling time: culture spiked with 100 mM salt in early exponential phase
Description: To determine how CsCl affects exponentially growing S. mutans cells, cultures were spiked with CsCl. TS media was prepared as in previous experiments and cultures were started with 0.2% inoculum. The cultures were grown for three and a half hours while monitoring the growth with the OD at 600 nm. When the cultures were in early exponential growth phase, they were spiked with 100 mM CsCl, 100 mM NaCl, or Listerine mouthwash in a 1:10 or 1:100 dilution in TS media.

[3] = test system: E. coli potassium channel mutants (Kch JW1242, TrkG JW1358, TrkH JW5576, KdpA JW0686); test: Growth of E. coli potassium channel mutants with CsCl; type: cell-based, Escherichia coli
Description: In order to better understand the mechanism of inhibition, the following potassium channel mutants of E. coli from the Keio collection were obtained from the Coli Genetic Stock Center at Yale University: Kch mutant JW 1242-1, TrkG mutant JW 1358-1, TrkH mutant JW 5576-1, and KdpA mutant JW686-5. Mutant E. coli strains were grown in LB broth in the presence or absence of CsCl (either 0 mM, 50 mM, or 100 mM CsCl) to assess the role of potassium transport channels in cesium inhibition.
It was hypothesized that, as a larger monovalent cation, cesium could block potassium channels, thereby blocking the uptake of potassium into the cell and retarding cell growth. Strains of E. coli with non-essential genes knocked out were acquired from the Yale Coli Genetic Stock Center. Four mutants were chosen: JW0686, a KdpA mutant, a cesium inducible potassium transporting ATPase; JW1242, a Kch mutant, a conductive potassium transporter; JW1358, a TrkG mutant, a transmembrane component of the Trk potassium uptake system; JW5576, a TrkH mutant, a transmembrane component of the Trk potassium uptake system. TrkG and TrkH determine the specificity of the Trk protein. Because of their similarity (i.e., 41% nucleotide homology), Trk can be made with either one of the two subunits if the other is not available, although TrkG is preferred.

[4] = test system: S. mutans; test: S. mutans growth with CsCl under differing pH conditions; type: cell-based, Streptococcus mutans
[5] = test system: Escherichia coli strain K12; test: E. coli K12 growth in LB broth with CsCl; type: cell-based
Description: as §1
as §2, with “concentrations. Additional gradient growth curves with 0 mM, 20 mM, 30 mM, 40 mM and 50 mM CsCl were conducted to refine the inhibition profile of S. mutans.” for “concentrations.”

[6] = test system: S. mutans; details: previous study, cited from earlier work
[7] = 0, 25, 50 and 100 mM cesium salt

[Cs+].[F-] [Cesium fluoride]
inhibition of S. mutans growth [1, 7]: little to no inhibition

O=C[O-].[Cs+] [Cesium formate]
inhibition of S. mutans growth [1, 7]: little to no inhibition

[Cs+].[OH-] [Cesium hydroxide]
inhibition of S. mutans growth ([1]; 50 mM or greater, due to increase in pH): inhibited cultures completely
pH of the media (50 mM): 9.5
pH of the media (100 mM): 12.5

[Cs+].[I-] [Cesium iodide]
inhibition of S. mutans growth [1, 7]: little to no inhibition

O=[N+]([O-])[O-].[Cs+] [Cesium nitrate]
inhibition of culture growth rates [1]: roughly 30%

O=S(=O)([O-])[O-].[Cs+].[Cs+] [Cesium sulfate]
inhibition of S. mutans growth ([1]; concentrations of 50 mM or below): not inhibitory

[Cl-].[Cs+] [CsCl, cesium chloride]
doubling time [2]: 2.49 h
inhibition of mutants ([3]; 0, 50 or 100 mM CsCl in LB broth): some inhibition
reduction in growth rate ([3]; 100 mM CsCl vs control with 100 mM NaCl, most inhibited cultures): roughly one third
doubling time ([4]; 25 mM CsCl, pH 7.00): 52 min
inhibition ([4]; 25 mM CsCl, pH 7.25): No inhibition
doubling time ([4]; 25 mM CsCl, pH 8.33): 64 min
increase of doubling time ([4]; 25 mM CsCl, pH 8.33 vs pH 7.00): 25%
inhibition relative to neutral pH ([4]; 100 mM, pH 8.33): more inhibitory
inhibition relative to neutral or basic pH ([4]; pH 4.50): less inhibitory
inhibition relative to other pH tested ([4]; pH 8.33): strongest inhibition
maximum yield ([1]; 0, 5, 10 and 25 mM CsCl cultures, OD 600 nm): 0.9 OD units
doubling time ([1]; 5 mM CsCl, NaCl added to 100 mM total supplemental cation): 1.06 h
doubling time ([1]; 10 mM CsCl, NaCl added to 100 mM total supplemental cation): 0.94 h
doubling time ([1]; 25 mM CsCl, NaCl added to 100 mM total supplemental cation): 1.17 h
doubling time ([1]; 50 mM CsCl, NaCl added to 100 mM total supplemental cation): 1.54 h
doubling time ([1]; 75 mM CsCl, NaCl added to 100 mM total supplemental cation): 2.37 h
doubling time ([1]; 100 mM CsCl): 4.17 h
growth of S. mutans ([1]; 100 mM CsCl culture): almost completely inhibited
colonies on TS-agar plate [1]: thin translucent colonies after a week
Minimum Inhibitory Concentration (MIC) [1]: 61.2 mM
doubling time ([5]; all CsCl concentrations tested (0-100 mM)): approximately 1 h
effect on growth rate ([5]; concentrations as high as 100 mM CsCl, LB media): minimal effect

[Cl-].[Na+] [NaCl, sodium chloride]
yield ([2]; 100 mM spiked control): 0.9 OD units
doubling time [2]: 1.21 h
doubling time ([1]; 100 mM NaCl (presented as 0 mM CsCl)): roughly 1 hour
colonies on TS-agar plate [1]: small opaque white colonies overnight

[Na+].[OH-] [NaOH, sodium hydroxide]
pH of the media (50 mM): 9.5
pH of the media (100 mM): 12.5

O=C([O-])O.[Na+] [sodium bicarbonate]
completely inhibitory concentration ([6]; 8% w/v converted): ~950 mM
completely inhibitory concentration [6]: 8 % w/v

O=[N+]([O-])[O-].[Na+] [sodium nitrate]
inhibition of culture growth rates [1]: roughly 30%

cesium bicarbonate
inhibition of S. mutans growth ([1]; 50 mM): increased inhibition
inhibition of S. mutans growth ([1]; 100 mM): complete inhibition
Minimum Inhibitory Concentration (MIC) [1]: 40.5 mM
inhibition compared with sodium bicarbonate control ([1]; concentrations less than 45 mM): not significantly different
inhibition compared with sodium bicarbonate control ([1]; concentrations of 45 mM or greater): inhibited S. mutans growth more than the control cultures
MIC lower than the MIC for CsCl by ([1]; difference of MIC values): more than 20 mM
